{"source": "patent US7019016B2", "about": "“NMDA NR2B antagonists for treatment” (Pfizer Inc, priority 2000, dated 2006)", "origin": "cited, not measured here", "key": {"[1]": {"details": "animal models of pain perception"}, "[2]": {"target": "NMDA receptors comprised of NR1/NR2B subunits (Homo sapiens, UniProt Q05586+Q13224)", "sequence (Q13224 27-1484, other chains not shown)": "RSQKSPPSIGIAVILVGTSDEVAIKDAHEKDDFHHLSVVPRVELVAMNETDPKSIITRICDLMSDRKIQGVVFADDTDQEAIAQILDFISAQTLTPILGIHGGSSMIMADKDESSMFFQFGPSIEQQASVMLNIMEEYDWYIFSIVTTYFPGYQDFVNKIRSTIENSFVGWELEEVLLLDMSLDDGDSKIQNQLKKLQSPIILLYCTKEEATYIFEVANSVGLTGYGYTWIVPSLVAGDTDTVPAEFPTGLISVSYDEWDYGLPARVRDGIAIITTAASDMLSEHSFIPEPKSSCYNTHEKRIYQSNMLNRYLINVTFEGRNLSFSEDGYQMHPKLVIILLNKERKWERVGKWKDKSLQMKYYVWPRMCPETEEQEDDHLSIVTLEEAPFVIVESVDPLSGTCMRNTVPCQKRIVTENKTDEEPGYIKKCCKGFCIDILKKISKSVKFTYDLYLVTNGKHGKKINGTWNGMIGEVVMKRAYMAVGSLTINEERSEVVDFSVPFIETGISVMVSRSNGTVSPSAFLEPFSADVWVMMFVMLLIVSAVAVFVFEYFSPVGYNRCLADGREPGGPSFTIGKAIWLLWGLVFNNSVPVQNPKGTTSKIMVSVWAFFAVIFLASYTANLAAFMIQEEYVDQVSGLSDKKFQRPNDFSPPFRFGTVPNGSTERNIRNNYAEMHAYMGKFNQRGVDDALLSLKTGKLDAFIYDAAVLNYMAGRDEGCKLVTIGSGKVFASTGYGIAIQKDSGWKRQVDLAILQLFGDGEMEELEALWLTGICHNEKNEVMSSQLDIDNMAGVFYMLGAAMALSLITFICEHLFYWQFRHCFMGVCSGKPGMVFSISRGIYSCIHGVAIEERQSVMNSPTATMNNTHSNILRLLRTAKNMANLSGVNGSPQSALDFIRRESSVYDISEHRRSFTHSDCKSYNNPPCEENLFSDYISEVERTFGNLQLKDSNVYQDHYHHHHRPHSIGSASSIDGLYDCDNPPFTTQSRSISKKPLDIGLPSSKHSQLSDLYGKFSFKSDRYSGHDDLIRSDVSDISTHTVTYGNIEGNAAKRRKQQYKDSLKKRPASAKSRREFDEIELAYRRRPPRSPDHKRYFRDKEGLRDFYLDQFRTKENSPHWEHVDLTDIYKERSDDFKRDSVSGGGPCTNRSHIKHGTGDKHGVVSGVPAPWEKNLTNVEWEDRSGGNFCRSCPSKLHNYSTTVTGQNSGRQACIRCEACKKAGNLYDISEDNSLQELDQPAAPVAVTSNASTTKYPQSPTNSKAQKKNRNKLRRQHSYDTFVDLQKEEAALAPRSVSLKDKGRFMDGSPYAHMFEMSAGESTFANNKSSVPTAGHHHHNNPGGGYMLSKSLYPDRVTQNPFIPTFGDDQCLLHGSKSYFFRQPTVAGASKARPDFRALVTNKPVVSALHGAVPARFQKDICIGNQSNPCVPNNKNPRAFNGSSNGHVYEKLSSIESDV", "details": "NR1/NR2B subunits compared to NR1/NR2A, NR2C, or NR2D subunits"}}}
{"smiles": "CC(C(O)c1ccc(O)cc1)N1CCC(Cc2ccccc2)CC1", "note": "(centres unmarked) [ifenprodil]", "values": [{"measurement": "analgesic activity", "setting": "[1]", "value": "significant analgesic activity"}, {"measurement": "blockade of ion current through NMDA receptors", "setting": "[2]", "value": "more potent and efficacious"}]}
